Settings: Fluid (supercritical or subcritical phases), Bellows volumetry

CCC [propane]
Settings	mass density [kg/m3]
280 K, 581.4 kPa	519.39
280 K, 604.8 kPa	519.45
280 K, 628.1 kPa	519.49
280 K, 651.4 kPa	519.57
280 K, 674.7 kPa	519.62
280 K, 698 kPa	519.69
280 K, 721.4 kPa	519.75
300 K, 1006 kPa	489.83
300 K, 1029.4 kPa	489.89
300 K, 1052.6 kPa	489.98
300 K, 1075.9 kPa	490.05
300 K, 1099.3 kPa	490.1
300 K, 1122.6 kPa	490.2
300 K, 1145.9 kPa	490.3
320 K, 1611.1 kPa	455.49
320 K, 1634.4 kPa	455.61
320 K, 1657.6 kPa	455.75
320 K, 1680.9 kPa	455.88
320 K, 1704.2 kPa	455.99
320 K, 1727.5 kPa	456.09
320 K, 1750.7 kPa	456.24
340 K, 2447.1 kPa	412.74
340 K, 2470.3 kPa	412.98
340 K, 2493.4 kPa	413.23
340 K, 2516.6 kPa	413.48
340 K, 2539.8 kPa	413.66
340 K, 2563 kPa	413.88
340 K, 2586.2 kPa	414.08
360 K, 3558 kPa	346.61
360 K, 3558.8 kPa	346.43
360 K, 3566.8 kPa	346.83
360 K, 3569.1 kPa	347.17
360 K, 3569.9 kPa	346.97
360 K, 3580.3 kPa	347.61
360 K, 3591.6 kPa	348.04
360 K, 3592.2 kPa	347.94
360 K, 3602.8 kPa	348.46
360 K, 3614 kPa	348.96
360 K, 3614.5 kPa	348.91
360 K, 3622.6 kPa	349.31
360 K, 3625.2 kPa	349.4
360 K, 3636.5 kPa	349.82
360 K, 3636.9 kPa	349.82
360 K, 3647.8 kPa	350.25
360 K, 3659 kPa	350.7
360 K, 3659.4 kPa	350.7
360 K, 3670.3 kPa	351.13
360 K, 3678.7 kPa	351.52
360 K, 3681.8 kPa	351.59
360 K, 3704.3 kPa	352.44
360 K, 3726.8 kPa	353.19
365 K, 3897.8 kPa	317.84
365 K, 3903 kPa	318.4
365 K, 3923.7 kPa	320.49
365 K, 3944.7 kPa	322.39
365 K, 3965.9 kPa	324.14
365 K, 3987.2 kPa	325.86
365 K, 4008.7 kPa	327.39
365 K, 4030.4 kPa	328.84

From the NIST ThermoML archive (doi:10.1016/j.jct.2006.07.012)
